Consider one molecule from US12642809B2, “Fucosylation and immune modulation in cancer” (H. LEE MOFFITT CANCER CENTER AND RESEARCH INSTITUTE, INC., priority 2019, dated 2026).

Entries after “also recorded” stand apart in the source; their conditions may differ.

One assay deals with SW1 melanoma tumors. As to the kind of experiment: SW1 melanoma tumors in C3H/HeN mice fed control or L-fucose water. It is filed as in vivo, mouse. The settings on record: for reduced tumor growth: 100 mM L-fucose in drinking water from ~150 mm^3. The protocol:
To determine which immune cell populations were affected by L-fucose, another mouse melanoma model treated with control or L-fucose-supplemented water was used. First, 1.25×10^6 SW1 mouse melanoma cells were injected into the back right flanks of the mice and allowed the tumors to grow to 150 mm^3. At 150 mm^3 (14 days), 100 mM L-fucose was administered via the drinking water to half of the mice. Tumor growth was monitored (FIGS. 3A and 3B). Total and specific subpopulations of tumor-infiltrating lymphocytes were assessed by cell flow cytometric analysis (FIGS. 3C and 3D). Assessed populations included F4/80 (macrophage)-, Gr-1 (MDSCs)-, Cd11c (Dendritic cells)-, and DX5 (NK cells)-positive cells. For T-cells, we probed for CD3 (general T-cell marker) and further for CD4 and CD8 (for those T cell subpopulations). Of the CD4-positive cells, CD25 positive cells was used to elucidate the T regulatory cells. […] Both CD4 and CD8 positive T cells (CD3+ cells) increased in response to fucose. However, myeloid derived suppressor cells (MDSCs) decreased in response to dietary fucose supplementation.
Tumors of SW1 or SMI melanoma cells from C3H/HeJ or C57BL/6 mice, respectively) were digested using 1× tumor digest buffer (0.5 mg/ml. Collagenase I, 0.5 mg/ml. Collagenase IV, 0.25 mg/ml. Hyalyronidase V. 0.1 mg/ml. DNAse I in HBSS (Millipore Sigma (St. Louis, MO)). Tumors were homogenized using the Miltenyi MACs dissociator. Red blood cells were lysed using ACK lysis buffer (Life Technologies, (Grand Island, NY)). Tumor homogenate cells were counted using a standard hemocytometer. (7) Flow Cytometry (a) TIL Profiling:
Single-cell suspensions from tumor and spleen tissue were stained with Live/Dead Zombie NIR (Biolegend, (San Diego, CA)) at 1:1,000 in PBS for 20 min. Cell suspensions were spun down and stained with the following antibodies: APC anti-mouse CD3 (0.5 μg/mL, BD Biosciences (San Jose, CA)), Pacific Blue anti-mouse CD4 ([…], BD Biosciences (San Jose, CA)), BV785 anti-mouse CD8 (0.5 μg/mL, BD Biosciences (San Jose, CA)), PerCP anti-mouse CD25 ([…], BD Biosciences (San Jose, CA)), FITC anti-mouse F4/80 (0.5 μg/mL, BD Biosciences (San Jose, CA)), PeCy7 anti-mouse CD11c (0.5 μg/mL, BD Biosciences (San Jose, CA)), PE anti-mouse NK1.1 (0.5 μg/mL, BD Biosciences (San Jose, CA)), PE anti-mouse DX5 (0.5 μg/mL, BD Biosciences (San Jose, CA)), PerCP-Cy5.5 anti-mouse CD11b (0.5 μg/mL, BD Biosciences (San Jose, CA)). After staining, the cells were washed and fixed (2% formaldehyde), followed by another wash and flow cytometric analysis. The compensation controls were prepared using 0.5 μg/ml. of each antibody with beads UltraComp eBeads™, (ThermoFisher Scientific (Waltham, MA)). All samples were subject to flow cytometric analysis using a LSR Flow Cytometer (BD Biosciences (San Jose, CA)). Flow cytometric data was further analyzed using FlowJo™ analysis software (BD Biosciences (San Jose, CA)). TIL profiles were determined as a measure of TIL subpopulations per gram of tumor tissues or % of total splenocytes.
FFPE mouse tumor sections were immunostained with FITC-conjugated AAL lectin (0.4 μg/mL, Vector Laboratories (Burlingame, CA)), rabbit anti-Mart-1 (0.2 μg/mL, Millipore Sigma (St. Louis, MO), and rabbit anti-S100 (0.2 μg/mL, Agilent Technologies (Santa Clara, CA)), followed by AlexaFluor 594 donkey anti-rabbit secondary antibody (0.05 μg/mL, ThermoFisher Scientific (Waltham, MA)). The slides were mounted with VECTASHIELD®+DAPI (Vector Laboratories (Burlingame, CA)). Microscopy images were acquired using a Keyence BZ-X710 microscope (Osaka, Japan), and images were measured for AAL-positive signal within MARTI-/S 100-positive regions (designated as melanoma regions of interest) using FIJI software (NIH). Statistical analysis was performed using GraphPad Prism™ (San Diego, CA).
Four-to-six-week-old female C3HeN and male C57BL6 mice were purchased from Charles Rivers Laboratories for the indicated experiments. […]

A further assay concerns HLA-DRB1. Nature of the assay: qRT-PCR and immunoblot of HLA-DRB1 in melanoma cells. It is filed as cell-based, human. The note with it: 250 μM, panel of melanoma cell lines. Here is the method:
Cells were lysed on ice in RIPA lysis buffer (25 mM Tris-HCl pH 7.6, 150 mM NaCl, 5 mM EDTA, 1% NP-40 or 1% Triton X-100, 1% sodium deoxycholate, 0.1% SDS in diH2O+protease and phosphatase inhibitors (ThermoFisher Scientific (Waltham, MA)), briefly sonicated, pelleted, and the resulting lysates were normalized by protein concentration using DC assay (BioRad Laboratories, (Hercules, CA)). The indicated samples were subjected to (12%) SDS-PAGE and immunoblot analysis using the indicated antibodies. Immunoblot imaging and analysis was performed using either an Odyssey FC scanner and ImageStudio (LiCor Biosciences, Lincoln, NE) or film.
RNA from cells subjected to the indicated treatments was extracted using Gene Elute Mammalian Total RNA Extraction System (Millipore Sigma (St. Louis, MO)). RNA was reversed transcribed to cDNA using High-Capacity cDNA Reverse Transcription Kit (ThermoFisher Scientific (Waltham, MA)). qRT-PCR analysis was performed using FastStart Universal SYBR Green Master Mix (Rox) (Roche Diagnostics, (Indianapolis, IN)) using a BioRad CFX96 Real-time system (BioRad Laboratories, (Hercules, CA)). The qRT-PCR cycles used were as follows: 95° C. for 10 min, 35 cycles of 95° C. for 15 seconds, 55° C. for 60 seconds, and 72° C. for 30 seconds. Expression of the indicated genes was normalized to histone H3A expression. […]
On the technique in general: Quantitative PCR measures a nucleic acid by following its amplification.

Where [1] appears, read: empty vector-expressing SW1 tumors.
[2] abbreviates: vs control diet, listed as L-fuc.

As for `C[C@H](O)[C@@H](O)[C@@H](O)[C@H](O)C=O` [L-fucose], the “increase in tumor fucosylation” value in the assay on SW1 melanoma tumors (100 mM L-fucose in drinking water) was about 2.25 fold. This molecule also displayed a reduced tumor growth in the assay with SW1 melanoma tumors of over 65%. For the same molecule, the reduced tumor growth in the assay with SW1 melanoma tumors (listed as L-fuc) is about 50%. In addition, the “increase in total TIL counts / infiltrating immune cells per gram of tumor” value with SW1 melanoma tumors (100 mM L-fucose in drinking water, flow cytometry) is 10-50 fold. For the same molecule, in the assay on SW1 melanoma tumors (setting [1]), the “reduced growth of EV tumors” value is about 50% and the “total TILs in EV tumors” value was “doubling”. The splenic lymphocyte profiles entry in the assay with SW1 melanoma tumors (flow cytometry) is on record as “without significant changes”. Besides, the “additive effect of L-fuc in mFuk tumors” value with SW1 melanoma tumors (mFuk-expressing SW1 tumors) is given as “No additive effects”. In addition, in the assay on SW1 melanoma tumors (vs control diet), the “absolute counts of each TIL subpopulation” value was “increased”; the “intratumoral CD4+ and CD8+ T cells” value is “increased; also recorded: doubled”; the “myeloid derived suppressor cells (MDSCs) in tumor” value is “decreased”; the “overall immune infiltration of tumors” value is given as “increased”. For the same molecule, in the assay with SW1 melanoma tumors (setting [2]), the “intratumoral CD4+ and CD8+ T cells” value is “doubling”; the “myeloid derived suppressor cells (MDSCs) in tumor” value is “either decreased or low”. The “HLA-DRB1 mRNA and protein levels” value with HLA-DRB1 is on record as “neither HLA-DRB1 mRNA nor protein levels were altered”.
